Here are results for eleven compounds from article PMC6028563, “Probing Substituents in the 1- and 3-Position: Tetrahydropyrazino-Annelated Water-Soluble Xanthine Derivatives as Multi-Target Drugs With Potent Adenosine Receptor Antagonistic Activity” (Frontiers in Chemistry, 2018).

Bounds are passed on as bounds.

A word on the Ki: it is the equilibrium dissociation constant of an inhibitor or competing ligand from its target. As usually defined, the IC50 is the concentration needed to halve the response being measured.

One assay deals with T1, rat A2A AR (Rattus norvegicus, UniProt P30543).
T1 construct: A2A ARs of rat brain striatal membrane preparations; from tissue; host or cells: rat brain striatum membranes
T1 sequence (P30543 whole entry): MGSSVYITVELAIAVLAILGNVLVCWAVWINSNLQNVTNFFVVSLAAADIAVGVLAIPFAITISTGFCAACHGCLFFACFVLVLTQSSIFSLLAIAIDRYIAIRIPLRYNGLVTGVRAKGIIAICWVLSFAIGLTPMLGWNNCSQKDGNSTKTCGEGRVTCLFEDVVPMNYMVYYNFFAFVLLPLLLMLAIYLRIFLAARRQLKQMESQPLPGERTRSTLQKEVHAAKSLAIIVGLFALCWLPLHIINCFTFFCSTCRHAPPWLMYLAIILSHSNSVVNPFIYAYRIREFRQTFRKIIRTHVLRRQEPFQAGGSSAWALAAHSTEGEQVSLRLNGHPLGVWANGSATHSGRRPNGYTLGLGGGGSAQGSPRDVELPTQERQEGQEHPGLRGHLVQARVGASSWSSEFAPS
The experiment in a line: Radioligand binding assay at rat A2A AR (rat brain striatum) vs. [^3H]MSX-2. To be noted: rat (r); for % inhibition of radioligand binding at indicated concentration, A2A vs. [^3H]MSX-2: at 1,000 nM; for Ki: rat brain striatum, n = 3, read-out: Ki ± SEM, A2A vs. [^3H]MSX-2. The procedure, abridged:
(§1)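 Using CHO membranes with one recombinant human AR subtype each (A1, A2A, A2B, A3), plus rat cortical (A1) and striatal (A2A) membranes, compounds are tested in radioligand binding to give receptor affinity and subtype selectivity.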

In a further assay the target is T2, rat A1 AR (Rattus norvegicus, UniProt P25099).
T2 construct: A1 ARs of rat brain cortical membrane; from tissue; host or cells: rat brain cortex membranes
T2 sequence (P25099 1-326): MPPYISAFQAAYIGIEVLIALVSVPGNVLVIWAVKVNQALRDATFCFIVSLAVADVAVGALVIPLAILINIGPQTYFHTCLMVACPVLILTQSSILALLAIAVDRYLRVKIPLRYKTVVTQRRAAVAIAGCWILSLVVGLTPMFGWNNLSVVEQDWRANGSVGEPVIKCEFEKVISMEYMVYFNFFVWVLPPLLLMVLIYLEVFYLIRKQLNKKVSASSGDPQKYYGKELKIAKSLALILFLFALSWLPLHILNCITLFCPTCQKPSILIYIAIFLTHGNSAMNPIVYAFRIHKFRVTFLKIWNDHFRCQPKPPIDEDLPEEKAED
Kind of assay: Radioligand binding assay at rat A1 AR (rat brain cortex) vs. [^3H]CCPA. To be noted: rat (r); for Ki: rat brain cortex, n = 3. The procedure, abridged:
as §1

Another assay addresses T3, human A3 AR (Homo sapiens, UniProt P0DMS8).
T3 construct: expressed in transfected cells; host or cells: CHO cells
T3 sequence (P0DMS8 1-318): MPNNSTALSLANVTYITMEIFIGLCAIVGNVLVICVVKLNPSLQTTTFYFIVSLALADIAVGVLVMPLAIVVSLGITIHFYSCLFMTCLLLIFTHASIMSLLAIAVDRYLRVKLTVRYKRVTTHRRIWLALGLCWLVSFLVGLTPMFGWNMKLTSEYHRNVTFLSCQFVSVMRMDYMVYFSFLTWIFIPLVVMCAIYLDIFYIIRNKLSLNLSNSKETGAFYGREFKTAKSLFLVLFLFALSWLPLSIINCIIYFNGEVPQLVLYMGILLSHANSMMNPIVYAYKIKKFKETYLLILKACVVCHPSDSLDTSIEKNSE
The experiment in a line: Radioligand binding assay at human A3 AR vs. [^3H]PSB-11. To be noted: for Ki: CHO cell membranes, n = 2 (n = 3 where marked a), read-out: Ki ± SEM, A3 vs. [^3H]PSB-11; for inhibition at 10 µM: at 10,000 nM, read-out: % inhibition of radioligand binding at indicated concentration, A3 vs. [^3H]PSB-11. In short, it runs like this:
as §1

For another assay, the target named is T4, human A1 AR (Homo sapiens, UniProt P30542).
T4 construct: expressed in transfected cells; host or cells: CHO cells
T4 sequence (P30542 1-326): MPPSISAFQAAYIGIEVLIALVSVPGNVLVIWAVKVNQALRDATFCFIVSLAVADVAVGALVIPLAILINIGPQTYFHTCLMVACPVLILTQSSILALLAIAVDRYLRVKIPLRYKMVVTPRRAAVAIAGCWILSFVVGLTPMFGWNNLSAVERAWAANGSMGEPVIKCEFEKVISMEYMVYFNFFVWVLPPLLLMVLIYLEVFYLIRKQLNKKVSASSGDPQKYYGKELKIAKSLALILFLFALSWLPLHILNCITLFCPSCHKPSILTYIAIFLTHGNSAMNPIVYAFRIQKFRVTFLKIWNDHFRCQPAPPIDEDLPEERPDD
The experiment in a line: Radioligand binding assay at human A1 AR vs. [^3H]CCPA. Particulars: human (h); CHO cell membranes; n = 3. The procedure, abridged:
as §1

For the next assay, the target named is T5, recombinant human MAO-B (Homo sapiens, UniProt P27338).
T5 construct: purchased Sigma-Aldrich M7441; host or cells: baculovirus-infected insect cells
T5 sequence (P27338 1-520): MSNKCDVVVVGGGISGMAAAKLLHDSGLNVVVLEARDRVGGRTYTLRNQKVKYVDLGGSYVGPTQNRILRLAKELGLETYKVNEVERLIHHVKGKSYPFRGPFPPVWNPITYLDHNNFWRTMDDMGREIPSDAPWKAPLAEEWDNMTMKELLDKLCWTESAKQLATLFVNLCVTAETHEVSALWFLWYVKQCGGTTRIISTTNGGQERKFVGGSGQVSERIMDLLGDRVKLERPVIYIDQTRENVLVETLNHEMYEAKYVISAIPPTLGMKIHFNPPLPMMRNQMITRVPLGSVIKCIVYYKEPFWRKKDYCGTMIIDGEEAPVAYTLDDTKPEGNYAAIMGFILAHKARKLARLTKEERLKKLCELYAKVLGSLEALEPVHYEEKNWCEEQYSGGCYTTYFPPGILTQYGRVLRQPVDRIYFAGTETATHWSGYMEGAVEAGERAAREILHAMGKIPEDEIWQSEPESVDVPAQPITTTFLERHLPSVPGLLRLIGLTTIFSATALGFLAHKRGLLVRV
Kind of assay: Monoamine oxidase assay (Amplex Red), MAO-B. Particulars: for inhibition at 10 µM: at 10,000 nM (10 μM), read-out: % inhibition at indicated concentration, Human MAO-B; for IC50: n = 3, read-out: IC50 ± SEM, Human MAO-B. The format is biochemical. The procedure, abridged:
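Recombinant human MAO-A and MAO-B, expressed in baculovirus-infected insect cells, were assayed by Amplex Red fluorometric detection. Rat MAO-B inhibition used mitochondria-enriched fractions from male Sprague Dawley rat liver.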

As for `CCn1c(=O)c2c(nc3n2CCN(Cc2ccc(F)c(Br)c2)C3)n(CC)c1=O` [Compound 15k, 8-(3-bromo-4-fluorobenzyl)-1,3-diethyl-6,7,8,9-tetrahydropyrazino[2,1-f]purine-2,4(1H,3H)-dione], the “% inhibition of radioligand binding at indicated concentration, A2A vs. [^3H]MSX-2” value at rat A2A AR is on record as 30%. The Ki on rat A2A AR is more than 1000 nM; on rat A1 AR, 270 ± 60 nM; on human A3 AR, 7190 nM; at human A1 AR it was 362 ± 98 nM. Besides, at recombinant human MAO-B, the inhibition at 10 µM was 63%. On recombinant human MAO-B, the half-inhibitory concentration (IC50) was less than 10000 nM.
As to `CCn1c(=O)c2c(nc3n2CCN(Cc2cc(Br)ccc2F)C3)n(CC)c1=O` [Compound 15l, 8-(5-bromo-2-fluorobenzyl)-1,3-diethyl-6,7,8,9-tetrahydropyrazino[2,1-f]purine-2,4(1H,3H)-dione], the Ki at rat A2A AR amounted to 756 ± 46 nM; at rat A1 AR, 33.5 ± 5.6 nM; on human A3 AR it was 13300 nM; at human A1 AR, 75.4 ± 16.1 nM. Further, at recombinant human MAO-B, the IC50 came out at 1310 nM.
For `CCn1c(=O)c2c(nc3n2CCN(Cc2cc(Cl)cc(Cl)c2)C3)n(CC)c1=O` [Compound 15m, 8-(3,5-dichlorobenzyl)-1,3-diethyl-6,7,8,9-tetrahydropyrazino[2,1-f]purine-2,4(1H,3H)-dione], the Ki on rat A2A AR is 2200 nM; at rat A1 AR it was 89.6 ± 21.4 nM; at human A3 AR it was 4720 nM; on human A1 AR, 207 ± 48 nM. At recombinant human MAO-B, the inhibition at 10 µM turned out to be 66%. Also, the IC50 at recombinant human MAO-B was less than 10000 nM.
Consider `CCn1c(=O)c2c(nc3n2CCN(Cc2cc(C(F)(F)F)ccc2Cl)C3)n(CC)c1=O` [Compound 15n, 8-(2-chloro-5-(trifluoromethyl)benzyl)-1,3-diethyl-6,7,8,9-tetrahydropyrazino[2,1-f]purine-2,4(1H,3H)-dione], for which the Ki at rat A2A AR was 871 ± 50 nM; on rat A1 AR it was 19.6 ± 3 nM; at human A3 AR, more than 10000 nM; on human A1 AR, 22.6 ± 2.7 nM. Also, the results for the inhibition at 10 µM at human A3 AR and at recombinant human MAO-B were 38% and 54%, respectively. On recombinant human MAO-B, the IC50 was not above 10000 nM.
As to `CCn1c(=O)c2c(nc3n2CCN(Cc2cc(F)c(F)c(F)c2)C3)n(CC)c1=O` [Compound 15r, 1,3-diethyl-8-(3,4,5-trifluorobenzyl)-6,7,8,9-tetrahydropyrazino[2,1-f]purine-2,4(1H,3H)-dione], at rat A2A AR, the “% inhibition of radioligand binding at indicated concentration, A2A vs. [^3H]MSX-2” value is 36%. Also, the Ki on rat A2A AR was more than 1000 nM; at rat A1 AR, more than 1500 nM; at human A3 AR, more than 10000 nM; at human A1 AR, 1190 nM. At rat A1 AR (read-out: % inhibition of radioligand binding at indicated concentration, A1 vs. [^3H]CCPA, at 1,500 nM), the inhibition at 1.5 µM is 25%. The inhibition at 10 µM on human A3 AR came to 14%. The IC50 on recombinant human MAO-B was found to be 524 ± 26 nM.
`CCn1c(=O)n(C)c(=O)c2c1nc1n2CCN(Cc2ccc(Cl)c(Cl)c2)C1` [Compound 16a, 8-(3,4-dichlorobenzyl)-1-ethyl-3-methyl-6,7,8,9-tetrahydropyrazino[2,1-f]purine-2,4(1H,3H)-dione]: the Ki is 1100 nM on rat A2A AR, 236 ± 23 nM at rat A1 AR, more than 10000 nM at human A3 AR and 396 ± 154 nM at human A1 AR. Moreover, on human A3 AR, the inhibition at 10 µM is 19%. The IC50 at recombinant human MAO-B came to 106 ± 10 nM.
Regarding `CCn1c(=O)n(C)c(=O)c2c1nc1n2CCN(Cc2cc(Cl)cc(Cl)c2)C1` [Compound 16b, 8-(3,5-dichlorobenzyl)-1-ethyl-3-methyl-6,7,8,9-tetrahydropyrazino[2,1-f]purine-2,4(1H,3H)-dione], the Ki on rat A2A AR is 1490 nM; on rat A1 AR, 49.3 ± 8 nM; at human A3 AR it was more than 10000 nM; on human A1 AR it was 143 ± 16 nM. The inhibition at 10 µM at human A3 AR came out at 23%. The IC50 on recombinant human MAO-B came out at 136 ± 5 nM.
Take `Cn1c(=O)c2c(nc3n2CCN(Cc2ccc(Cl)c(Cl)c2)C3)n(C2CC2)c1=O` [Compound 17, 8-(3,4-dichlorobenzyl)-1-cyclopropyl-3-methyl-6,7,8,9-tetrahydropyrazino[2,1-f]purine-2,4(1H,3H)-dione]: the Ki was 3940 nM at rat A2A AR, 584 ± 8 nM at rat A1 AR, more than 10000 nM at human A3 AR and 1130 nM on human A1 AR. Moreover, the inhibition at 10 µM at human A3 AR was determined as 26%. The IC50 at recombinant human MAO-B was found to be 3690 nM.
As to `C#CCn1c(=O)c2c(nc3n2CCN(Cc2ccc(Cl)c(Cl)c2)C3)n(C)c1=O` [Compound 19a, 8-(3,4-dichlorobenzyl)-1-methyl-3-propargyl-6,7,8,9-tetrahydropyrazino[2,1-f]purine-2,4(1H,3H)-dione], the Ki at rat A2A AR was 642 ± 194 nM; on rat A1 AR it was 292 ± 21 nM; at human A3 AR, 5630 nM; on human A1 AR it was 967 ± 211 nM. Besides, at recombinant human MAO-B, the IC50 is 679 ± 17 nM.
On to `C#CCn1c(=O)c2c(nc3n2CCN(Cc2cc(C(F)(F)F)ccc2Cl)C3)n(C)c1=O` [Compound 19b, 8-(2-chloro-5-(trifluoromethyl)benzyl)-1-methyl-3-propargyl-6,7,8,9-tetrahydropyrazino[2,1-f]purine-2,4(1H,3H)-dione], for which the Ki at rat A2A AR is 414 ± 49 nM; at rat A1 AR, 153 ± 10 nM; on human A3 AR, more than 10000 nM; on human A1 AR, 110 ± 4 nM. Also, the inhibition at 10 µM is 25% on human A3 AR and 59% on recombinant human MAO-B. On recombinant human MAO-B, the IC50 was less than 10000 nM.
On to `C#CCn1c(=O)c2c(nc3n2CCN(c2cccc(OC)c2)C3)n(CC)c1=O` [Compound 20c, 1-ethyl-8-(3-methoxyphenyl)-3-propargyl-6,7,8,9-tetrahydropyrazino[2,1-f]purine-2,4(1H,3H)-dione], for which the Ki at rat A2A AR came out at 250 ± 80 nM; on rat A1 AR it was 328 ± 70 nM; on human A3 AR it was 7160 nM; on human A1 AR, 946 ± 166 nM. For the same compound, the inhibition at 10 µM at recombinant human MAO-B is more than 50%. Further, the IC50 at recombinant human MAO-B is not above 10000 nM.
